From patent US6552000B2, “Anticonvulsant derivatives useful in treating autism” (Ortho-McNeil Pharmaceutical, Inc., priority 1999, dated 2003)

Legend:
partial onset seizures = assay: placebo controlled, add on trials in partial onset seizures; assay type: in vivo; conditions: adults and children with partial onset seizures
Source text: There is also known enhancement of GABA activity in the brain along with reduced glutamate receptor activity. Accordingly, compounds of formula I are useful in the treatment of autism.

[1] = test system: simple and complex partial seizures and secondarily generalized seizures; conditions: clinical trials of human epilepsy; adjunctive therapy or monotherapy; cited from earlier work
kindled epilepsy = conditions: animal model of kindled epilepsy; cited from earlier work
seizures = conditions: several rodent models of epilepsy; cited from earlier work

For CC1(C)O[C@@H]2[C@@H](CO[C@@]3(COS(N)(=O)=O)OC(C)(C)O[C@@H]23)O1 [topiramate, 2,3:4,5-bis-O-(1-methylethylidene)-β-D-fructopyranose sulfamate], the “reduction of seizure rate versus placebo” value (partial onset seizures) is given as “statistically significant reduction of seizure rate”, the “efficacy in treating simple and complex partial seizures and secondarily generalized seizures” value [1] is given as “effective” and the block of seizures (kindled epilepsy) is given as “effectively block seizures”. For the same compound, the block of seizures (seizures) was “effectively block seizures”.
